How the values were obtained:
Type in all cases: cell-based
[1] = test system: isolated primary human T cells; assay: eGFP mRNA LNP transfection of T cells, 125,000 cells per well format (day 3/4/7), flow cytometry; conditions: CT10 composition, six donors, day 7
Description: Isolation of primary T cells from human whole blood and activation/expansion was performed as in general procedures above. Isolated T cells were exposed to the formulated mRNA three days after activation; in the T cell growth curve, this time point corresponds to just before or at the log phase of growth. A dose of 125 ng of CleanCap™ EGFP (Trilink Biotechnologies, San Diego, Calif.) mRNA encapsulated in LNP (see details below) was added to about 125,000 T cells in 0.25 mL of complete T cell media, with 1 ug/mL of Recombinant Human ApoE4 (“ApoE”) (Peprotech Inc., Montreal, Canada).
The volume of LNP required for T cell treatment was calculated based upon Ribogreen™ assay results. T cells were counted through Trypan blue (Sigma) exclusion and diluted to 500,000 cells/mL. […]
Lipid mix compositions were tested for their ability to induce transfection, using flow cytometry to measure the geometric mean fluorescence intensity of eGFP. Shown in FIG. 11 A(i) to D(ii) are the transfection efficiencies (i) and mean fluorescence intensities (ii) of mRNA LNPs encoding eGFP in isolated primary human T cells under various conditions. […]
GFP expression in isolated primary human T cells mediated by mRNA-LNPs containing BOCHD-C3-DMA with CT10 composition at N/P 8 is shown in FIG. 16. Transfection efficiency, viability and GFP MFI measured by flow cytometry 48 hours after LNP addition. […]

[2] = test system: primary human T cells (live CD4+/CD8+ T cells); assay: eGFP mRNA LNP transfection of activated T cells on day 7, 2 μg mRNA per 500,000 cells, flow cytometry after 48 h; conditions: for MFI results by ionizable lipid: MC3 versus BOCHD-C3-DMA; for activity of the lipid mix composition to transfect T cells by ionizable lipid (FIG. 10 upper): same ratios and materials, ionizable lipid varied
Description: All reagents from StemCell Technologies unless otherwise stated. T cells were isolated from whole human peripheral blood using a negative selection isolation procedure (EasySep™ Human T Cell Isolation Kit). T cell activation and expansion was carried out using Immunocult™ Human CD3/CD28/CD2 Activator in ImmunoCult™ Human T Cell Expansion Media supplemented with recombinant human IL-2 (Peprotech Inc., Rocky Hill USA). T cells typically enter a logarithmic phase of growth 48-96 hours after activation, which phase is characterized by a period of rapid proliferation and metabolic activity for 24-72 hours followed by a plateau in the growth curve as the cells start to return to a quiescent state. As depicted in FIG. 1, T cells may be exposed to lipid nucleic acid before or during the log phase of growth (day 3), or after the log phase of growth (day 7).
We tested the compositions of new Lipid Mixes against standard Lipid Mix A (all with BOCHD-C3-DMA as IL unless otherwise stated) using the triple T cell activation protocol (Pan T cells were activated with trio activator comprising anti-CD3/CD28/CD2 antibody) in LNP-mediated mRNA delivery and expression in vitro.
LNP formulated EGFP mRNA (Trilink Biotechnologies, San Diego, Calif.) was added to 500,000 T cells in 1 mL of complete T cell media, with 1 μg/mL of Recombinant Human ApoE4 (“ApoE”) (Peprotech Inc.).
The volume of LNAP required to achieve the desired dose of mRNA was calculated based on the concentration of encapsulated mRNA as determined by modified Ribogreen™ assay. T cells were counted through Trypan blue (Sigma) exclusion and diluted to 500,000 cells/mL. Briefly, in a 12 well plate, 1 mL was aliquoted into each well. ApoE was added to a final concentration of 1 ug/mL in each well. Based upon the calculation in step 1, the required amount of mRNA LNP was added, in this case 2 μg, and the plate incubated for 48 hours.
Different lipid mix compositions were tested for their ability to induce transfection as measured by geometric mean fluorescence intensity of GFP expressed in T cells (as measured by flow cytometry).
Three isolations of T cells were taken from a single donor and divided into three groups: Pan T cells (all T cells), CD4+ T cells alone, and CD8+ T cells alone. At 48H following lipid particle mRNA exposure, the treated T cells were harvested by transferring the cell suspensions to pre-labeled 1.5 mL tubes and centrifuged 300×g at 4 degrees Celsius for 10 minutes. Supernatant was removed and the pellet resuspended in PBS. An amount of 0.5 ul of BD Horizon™ Fixable Viability Stain 575V™ (BD Biosciences) was added, and the mixture incubated in the dark for 10 minutes at RT. The cells were centrifuged again as before, then washed twice with 1 mL of Stain buffer (BSA, BD Pharminigen), and the washed pellet placed in 100 μl BSA. The following antibodies were added to each tube of treated cells in 2 μl volumes: anit-CD25, anti-CD8, anti-CD4, (PerCP-Cy 5.5 Mouse Anti Human CD25, BV786 Mouse Anti-Human CD8 Clone RPA-T8, and APC-Cy™ 7 Mouse Anti-Human CD4 Clone SK3, all from BD Pharmingen). For compensation purposes, in the GFP only sample and viability control, no antibody was added, while in the single stain compensation tubes, only one antibody was added.
The tubes were incubated at 4 degrees C. for 30 min, whereupon […] of stain buffer (BSA) was added, and the cells were centrifuged again. Cells were washed once with 1 mL of stain buffer and spun down again as in step 1. Cell pellets were resuspended in 1 mL of stain buffer and added to pre-labeled flow tubes with cell strainer caps (Corning Falcon).
Histogram Analysis of T Cell Populations was generated as follows: Flow cytometry was performed on the live primary human T cells. […] All LNP compositions contained BOCHD-C3-DMA as ionizable lipid (IL). […]

primary human T cells = assay: EPO mRNA LNP delivery to T cells, Human Epo ELISA; conditions: CT10 LNPs, 48 h
Description: Reagents were acquired from Quantikine, Minneapolis, Minn. The assay was performed as directed on the Quantikine® IVD® ELISA Human Erythropoietin Immunoassay protocol REF DEP00 Package Insert. Briefly; primary human T cells were isolated from fresh whole blood using a negative selection protocol and activated using a triple activator. At 7 days post-activation, the cells were treated with mRNA LNPs encoding EPO at 2 μg mRNA per 500,000 cells and N/P 10. After 48 hours of treatment with mRNA LNPs, the T cells were harvested and lysed for cytosolic EPO and media supernatant was sampled for secreted EPO. Quantikine® Human Serum Controls were used.
Frozen human T cells, previously isolated from fresh human whole blood using a negative selection protocol, were thawed and activated using a triple activator as previously described. At seven days post-activation, T cells were dosed with CT10 formulated mRNA LNPs encoding recombinant human erythropoietin (EPO) determined by ELISA (R&D Systems) at 2 μg mRNA per 500,000 cells and N/P 10. After 48 hours of treatment with mRNA LNPs the T cells were harvested and lysed for cytosolic EPO and media supernatant was sampled for secreted EPO.

Row | SMILES | donor to donor variability by ionizable lipid (FIG. 15) [1] | MFI results by ionizable lipid [2] | activity of the lipid mix composition to transfect T cells by ionizable lipid (FIG. 10 upper) [2] | level of secreted EPO by ionizable lipid (primary human T cells) | T cell transfection by structural lipid (FIG. 8) ([2]; Lipid Mix CT22 ratios, structural lipid DOPE or DSPC, N/P 10)
1 | CCCCCC=CCC=CCCCCCCCCC(CCCCCCCCC=CCC=CCCCCC)OC(=O)CCCN(C)C (stereo not drawn) [MC3, heptatriaconta-6,9,28,31-tetraen-19-yl 4-(dimethylamino)butanoate, reference compound] | no substantial difference | comparable | without affecting the activity of the lipid mix composition to transfect T cells |  | 
2 | CCCCC/C=C\C/C=C\CCCCCCCCC1(CCCCCCCC/C=C\C/C=C\CCCCC)OCC(CCN(C)C)O1 (stereo not drawn) [KC2, 2,2-dilinoleyl-4-(2-dimethylaminoethyl)-[1,3]-dioxolane, reference compound] |  |  | without affecting the activity of the lipid mix composition to transfect T cells |  | 
3 | CCCCCCCCC1CC1CCCCCCCCC(CCCCCCCCC1CC1CCCCCCCC)OC(=O)CCCN(C)C.Cl (stereo not drawn) [BOCHD-C3-DMA, 1,17-bis(2-octylcyclopropyl)heptadecan-9-yl 4-(dimethylamino) butanoate hydrochloride] | no substantial difference | comparable | without affecting the activity of the lipid mix composition to transfect T cells | higher level of secreted EPO than MC3 LNPs | 
4 | CCCCCCCCCCCCCCCCCC(=O)OC[C@H](COP(=O)([O-])OCC[N+](C)(C)C)OC(=O)CCCCCCCCCCCCCCCCC [DSPC, distearoylphosphatidylcholine] |  |  |  |  | better than DOPE
